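Grown in 96-well plates, cells were treated for 48 hours with each compound at five concentrations. Insufficient inhibition: endpoint recorded as highest concentration tested. GI50 = concentration required for 50% inhibition of growth.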 Active and inactive are the calls of the source. No stated cut-off is given here; in the data, active = GI50 up to about 1.1 µM and inactive = higher.
What was measured:
Test in all cases: growth of human tumour cells (NCI), 48 h
SF-539 = system: SF-539
HL-60 = system: HL-60
MDA-N = system: MDA-N
HCT-116 = system: HCT-116
OVCAR-4 = system: OVCAR-4
HT-29 = system: HT-29
HOP-92 = system: HOP-92
CCRF-CEM = system: CCRF-CEM
EKVX = system: EKVX
OVCAR-5 = system: OVCAR-5
SNB-75 = system: SNB-75
SR = system: SR
OVCAR-8 = system: OVCAR-8
CAKI-1 = system: CAKI-1
NCI-H23 = system: NCI-H23
UACC-62 = system: UACC-62
SK-MEL-28 = system: SK-MEL-28
SK-MEL-2 = system: SK-MEL-2
DU-145 = system: DU-145
SF-295 = system: SF-295

Measured: GI50

Sc1ncnc2nc[nH]c12 [MERCAPTOPURINE ANHYDROUS]
inactive: SF-539 2.49 µM | HL-60 2.44 µM | MDA-N 1.78 µM | HCT-116 2.37 µM | OVCAR-4 8.05 µM | HT-29 4.02 µM | HOP-92 2.94 µM | CCRF-CEM 1.26 µM | EKVX 263 µM | OVCAR-5 8.63 µM | SNB-75 8.75 µM | SR 1.24 µM | OVCAR-8 2.54 µM | CAKI-1 3.21 µM | NCI-H23 3.89 µM | UACC-62 1.76 µM | SK-MEL-28 372 µM | SK-MEL-2 5.97 µM | DU-145 2.51 µM | SF-295 5.81 µM

O=C1/C(=C\c2cccc(Oc3ccccc3)c2)SC(c2ccccc2)N1c1ccc(Cl)cc1 (stereo not given)
inactive: SF-539 21.3 µM | HL-60 10.1 µM | MDA-N 4.79 µM | HCT-116 10.3 µM | OVCAR-4 17.4 µM | HT-29 30.8 µM | HOP-92 61.1 µM | CCRF-CEM 5.89 µM | EKVX 80.7 µM | OVCAR-5 > 39.7 µM | SNB-75 90.4 µM | SR 3.91 µM | OVCAR-8 32.9 µM | CAKI-1 > 60.3 µM | NCI-H23 15.8 µM | UACC-62 9.04 µM | SK-MEL-28 64.9 µM | SK-MEL-2 > 47.5 µM | DU-145 65.8 µM | SF-295 7.11 µM

CSc1nc(SC)c2c(C)c(Br)[nH]c2n1
inactive: SF-539 54.6 µM | HL-60 > 100 µM | MDA-N > 100 µM | HCT-116 > 100 µM | OVCAR-4 > 100 µM | HT-29 > 100 µM | HOP-92 > 100 µM | CCRF-CEM > 100 µM | EKVX 70.5 µM | OVCAR-5 > 100 µM | SNB-75 > 100 µM | SR > 100 µM | OVCAR-8 > 100 µM | CAKI-1 > 100 µM | NCI-H23 > 100 µM | UACC-62 > 100 µM | SK-MEL-28 > 100 µM | SK-MEL-2 > 100 µM | DU-145 > 100 µM | SF-295 > 100 µM
